In article PMC7403668, “Intellectual disability‐associated gene ftsj1 is responsible for 2′‐O‐methylation of specific tRNAs” (EMBO Reports, 2020):

Tests used:
[1] = target: T1, FTSJ1 (FTSJ1-His) (Homo sapiens, UniProt Q9UET6); assay: isothermal titration calorimetry (iTC200), one-site model; type: binding
T1 construct: full-length, C-terminal His6-tag kept, baculovirus/High Five insect cells; cDNA from HeLa RNA; 327 residues as printed
T1 sequence (Q9UET6 1-327 isoform Q9UET6-2): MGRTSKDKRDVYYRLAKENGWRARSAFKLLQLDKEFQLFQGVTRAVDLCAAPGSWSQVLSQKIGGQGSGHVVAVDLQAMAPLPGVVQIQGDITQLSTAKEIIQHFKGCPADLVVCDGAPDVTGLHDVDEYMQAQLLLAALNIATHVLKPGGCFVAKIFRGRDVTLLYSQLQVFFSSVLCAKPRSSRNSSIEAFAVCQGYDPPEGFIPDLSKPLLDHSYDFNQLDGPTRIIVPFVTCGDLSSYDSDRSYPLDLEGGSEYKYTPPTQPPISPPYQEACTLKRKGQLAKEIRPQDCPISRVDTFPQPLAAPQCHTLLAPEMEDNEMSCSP

[2] = target: T2, FTSJ1-WDR6 (Homo sapiens, UniProt Q9UET6); assay: tRNA […]'-O-methyl transfer, UPLC-MS/MS of Gm34; type: biochemical; settings: methyl donor, 100 μM SAM; co-substrate 5 μM tRNAPhe(GAA) from ftsj1 KO cells or with m1G37; 10 mM MgCl2, pH 7.5, 37°C, 2 h
T2 construct: mixture of FTSJ1 (C-terminal His6, High Five cells) and WDR6 (N-terminal GST, Sf9 cells), purified separately; binary complex; with tRNA (34-2'-O)-methyltransferase regulator WDR6
T2 sequence (Q9UET6 1-327 isoform Q9UET6-2): T1 sequence (Q9UET6 1-327 isoform Q9UET6-2)
T2 sequence (Q9NNW5 1-1121 partner): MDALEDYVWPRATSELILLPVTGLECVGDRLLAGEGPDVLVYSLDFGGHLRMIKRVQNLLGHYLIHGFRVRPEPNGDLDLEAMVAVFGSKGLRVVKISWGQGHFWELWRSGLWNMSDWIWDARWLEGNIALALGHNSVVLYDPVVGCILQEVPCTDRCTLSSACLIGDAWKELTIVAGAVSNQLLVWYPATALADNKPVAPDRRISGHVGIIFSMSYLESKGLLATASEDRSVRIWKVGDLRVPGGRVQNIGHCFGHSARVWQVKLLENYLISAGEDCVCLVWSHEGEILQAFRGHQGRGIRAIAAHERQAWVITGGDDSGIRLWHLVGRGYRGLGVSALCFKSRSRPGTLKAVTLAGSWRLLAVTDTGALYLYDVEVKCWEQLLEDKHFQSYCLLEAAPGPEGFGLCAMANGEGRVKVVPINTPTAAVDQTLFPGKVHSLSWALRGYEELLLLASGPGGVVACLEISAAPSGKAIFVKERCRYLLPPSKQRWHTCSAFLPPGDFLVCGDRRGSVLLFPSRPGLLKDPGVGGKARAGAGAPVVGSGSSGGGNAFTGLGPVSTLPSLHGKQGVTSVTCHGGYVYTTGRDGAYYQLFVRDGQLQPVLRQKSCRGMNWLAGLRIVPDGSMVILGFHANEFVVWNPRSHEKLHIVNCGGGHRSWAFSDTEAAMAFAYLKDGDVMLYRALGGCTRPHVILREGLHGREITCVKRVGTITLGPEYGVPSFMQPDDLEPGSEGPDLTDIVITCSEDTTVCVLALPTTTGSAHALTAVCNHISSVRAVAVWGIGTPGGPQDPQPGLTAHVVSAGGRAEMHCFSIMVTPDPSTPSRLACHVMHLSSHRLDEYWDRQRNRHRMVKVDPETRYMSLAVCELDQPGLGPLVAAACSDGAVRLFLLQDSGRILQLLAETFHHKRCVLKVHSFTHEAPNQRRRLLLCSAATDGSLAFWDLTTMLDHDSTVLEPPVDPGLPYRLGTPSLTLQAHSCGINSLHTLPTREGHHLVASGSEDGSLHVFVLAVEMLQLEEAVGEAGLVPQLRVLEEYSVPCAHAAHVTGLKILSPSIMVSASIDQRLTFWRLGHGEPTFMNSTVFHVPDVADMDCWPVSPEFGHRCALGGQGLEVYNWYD

**Q.** `C[S+](CC[C@H](N)C(=O)O)C[C@H]1O[C@@H](n2cnc3c(N)ncnc32)[C@H](O)[C@@H]1O` (some centres unmarked) [SAM] was tested. Which Kd [1] did it give?
**A.** ~4 µM

**Q.** And the “tRNA 2'-O-methyl transfer, UPLC-MS/MS of Gm34” value [2]?
**A.** robust Gm formation was detected after incubation with FTSJ1‐WDR6
